Measured values as given in patent publication US10435431B2, “3,3 disubstituted 19-nor pregnane compounds, compositions, and uses thereof” (Sage Therapeutics, Inc., priority 2011, dated 2019).

What was measured:
[1] = biological target: [35S]-TBPS binding, rat brain cortical membranes; experiment: Steroid inhibition of [35S]-TBPS binding; details: 2 nM [35S]-TBPS, in the presence of 5 μM GABA
Protocol: Steroid Inhibition of TBPS Binding
TBPS binding assays using rat brain cortical membranes in the presence of 5 μM GABA has been described (Gee et al, J. Pharmacol. Exp. Ther. 1987, 241, 346-353; Hawkinson et al, Mol. Pharmacol. 1994, 46, 977-985).
Briefly, cortices are rapidly removed following decapitation of carbon dioxide-anesthetized Sprague-Dawley rats (200-250 g). The cortices are homogenized in 10 volumes of ice-cold 0.32 M sucrose using a glass/teflon homogenizer and centrifuged at 1500×g for 10 min at 4° C. The resultant supernatants are centrifuged at 10,000×g for 20 min at 4° C. to obtain the P2 pellets. The P2 pellets are resuspended in 200 mM NaCl/50 mM Na—K phosphate pH 7.4 buffer and centrifuged at 10,000×g for 10 min at 4° C. This ishing procedure is repeated twice and the pellets are resuspended in 10 volumes of buffer. Aliquots (100 μL) of the membrane suspensions are incubated with 2 nM [^35S]-TBPS and 5 μL aliquots of test drug dissolved in dimethyl sulfoxide (DMSO) (final 0.5%) in the presence of 5 μM GABA. The incubation is brought to a final volume of 1.0 mL with buffer. Nonspecific binding is determined in the presence of 2 μM unlabeled TBPS and ranged from 15 to 25%. Following a 90 min incubation at room temp, the assays are terminated by filtration through glass fiber filters (Schleicher and Schuell No. 32) using a cell harvester (Brandel) and rinsed three times with ice-cold buffer. Filter bound radioactivity is measured by liquid scintillation spectrometry. Non-linear curve fitting of the overall data for each drug averaged for each concentration is done using Prism (GraphPad). […] The concentration of test compound producing 50% inhibition (IC50) of specific binding and the maximal extent of inhibition (Imax) are determined for the individual experiments with the same model used for the overall data and then the means±SEM.s of the individual experiments are calculated.
Various compounds are or can be screened to determine their potential as modulators of [^35S]-TBPS binding in vitro. These assays are or can be performed in accordance with the above discussed procedures.

[2] = biological target: T1, Recombinant α1β2γ2 GABAA Receptors (Homo sapiens, UniProt P14867+P47870); experiment: Patch clamp electrophysiology of recombinant α1β2γ2 GABAA receptors, potentiation of GABA mediated currents; format: cell-based; details: Ltk cells, GABA EC10=0.5 μM, whole cell patch clamp; for % potentiation at 1000 nM: test article 1000 nM; for % potentiation at 10000 nM: test article 10000 nM; for % potentiation at 100 nM: test article 100 nM
T1 construct: expressed in transfected cells; host or cells: Ltk cells
T1 sequence (P14867 28-456): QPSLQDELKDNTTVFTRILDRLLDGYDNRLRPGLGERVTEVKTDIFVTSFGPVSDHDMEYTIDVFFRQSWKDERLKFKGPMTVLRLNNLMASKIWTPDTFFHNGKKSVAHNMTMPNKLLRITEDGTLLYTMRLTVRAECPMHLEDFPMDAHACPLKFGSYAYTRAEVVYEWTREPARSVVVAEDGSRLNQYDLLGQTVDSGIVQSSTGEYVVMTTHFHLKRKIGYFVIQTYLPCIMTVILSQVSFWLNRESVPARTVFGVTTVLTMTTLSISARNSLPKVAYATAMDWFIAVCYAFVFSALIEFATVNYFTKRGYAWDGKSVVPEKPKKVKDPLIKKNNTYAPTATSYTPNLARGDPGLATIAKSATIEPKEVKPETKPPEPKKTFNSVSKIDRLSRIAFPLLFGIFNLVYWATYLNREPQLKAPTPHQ
T1 sequence (P47870 25-512 limits assumed): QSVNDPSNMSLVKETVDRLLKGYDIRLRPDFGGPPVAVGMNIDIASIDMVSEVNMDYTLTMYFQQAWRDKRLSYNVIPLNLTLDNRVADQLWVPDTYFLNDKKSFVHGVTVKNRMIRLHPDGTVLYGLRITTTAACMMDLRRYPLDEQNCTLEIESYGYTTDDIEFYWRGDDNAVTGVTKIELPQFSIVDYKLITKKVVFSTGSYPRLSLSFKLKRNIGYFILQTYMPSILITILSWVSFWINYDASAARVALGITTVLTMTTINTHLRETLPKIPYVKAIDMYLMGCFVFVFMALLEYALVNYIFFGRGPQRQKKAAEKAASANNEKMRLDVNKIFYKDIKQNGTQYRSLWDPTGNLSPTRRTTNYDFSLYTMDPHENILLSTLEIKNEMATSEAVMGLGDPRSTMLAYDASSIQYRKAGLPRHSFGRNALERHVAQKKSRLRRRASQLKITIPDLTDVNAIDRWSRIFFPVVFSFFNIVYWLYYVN
T1 sequence (P18507 40-475 partner): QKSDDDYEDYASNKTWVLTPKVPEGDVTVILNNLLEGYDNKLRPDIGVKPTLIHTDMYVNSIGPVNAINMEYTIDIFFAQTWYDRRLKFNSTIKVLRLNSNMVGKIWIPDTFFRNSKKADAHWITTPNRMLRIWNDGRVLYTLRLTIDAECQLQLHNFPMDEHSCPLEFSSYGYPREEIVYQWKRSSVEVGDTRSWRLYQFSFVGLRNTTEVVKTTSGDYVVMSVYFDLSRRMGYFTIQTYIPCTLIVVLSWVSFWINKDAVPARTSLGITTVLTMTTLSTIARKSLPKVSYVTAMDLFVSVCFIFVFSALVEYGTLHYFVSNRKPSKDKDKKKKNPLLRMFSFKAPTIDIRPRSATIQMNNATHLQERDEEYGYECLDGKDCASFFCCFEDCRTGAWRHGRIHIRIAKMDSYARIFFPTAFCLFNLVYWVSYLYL
Protocol: Patch Clamp Electrophysiology of Recombinant α1β2γ2 GABAA Receptors
Cellular electrophysiology is used to measure in vitro potency and efficacy of our GABAA receptor modulators in Ltk cells. Each compound is tested for its ability to affect GABA mediated currents at a submaximal agonist dose (GABA EC10=0.5 μM) in a whole cell patch clamp technique using a EPC-10, HEKA Electronics Amplifier and PatchMaster software. These experiments measure potency, efficacy (Emax), direct gating properties and acute desensitization. Test article is added at 0.1, 1.0 and 10 uM.

Row | SMILES | IC50 [1] [µM] | % potentiation at 1000 nM [2] [%] | % potentiation at 10000 nM [2] [%] | % potentiation at 100 nM [2] [%]
1 | CC(=O)[C@H]1CC[C@H]2[C@@H]3CC[C@@H]4C[C@@](O)(C(F)F)CC[C@@H]4[C@H]3CC[C@]12C | 0.033 |  |  | 
2 | CC(=O)[C@H]1CC[C@H]2[C@@H]3CC[C@@H]4C[C@](O)(CF)CC[C@@H]4[C@H]3CC[C@]12C | 0.1 |  |  | 
3 | COC[C@@]1(O)CC[C@H]2[C@H](CC[C@@H]3[C@@H]2CC[C@]2(C)[C@@H](C(=O)CO)CC[C@@H]32)C1 | 0.17 |  |  | 
4 | C[C@@]1(O)CC[C@H]2[C@@H](CC[C@@H]3[C@@H]2CC[C@]2(C)[C@@H](C(=O)CO)CC[C@@H]32)C1 | 0.22 | 130 | 227 | 
5 | CC(=O)[C@H]1CC[C@H]2[C@@H]3CC[C@H]4C[C@](C)(O)CC[C@@H]4[C@H]3CC[C@]12C | 0.093 | 157 | 270 | 80
6 | COC[C@@]1(O)CC[C@H]2[C@@H](CC[C@@H]3[C@@H]2CC[C@]2(C)[C@@H](C(=O)CO)CC[C@@H]32)C1 | 0.094 |  |  | 
7 | C[C@@]1(O)CC[C@H]2[C@H](CC[C@@H]3[C@@H]2CC[C@]2(C)[C@@H](C(=O)CO)CC[C@@H]32)C1 | 0.086 | 163 |  | 101
8 | C[C@]12CC[C@H]3[C@@H](CC[C@H]4C[C@@](O)(C(F)F)CC[C@@H]43)[C@@H]1CC[C@@H]2C(=O)CO | > 10 | 0 | 100 | 
9 | COC[C@@]1(O)CC[C@H]2[C@H](CC[C@@H]3[C@@H]2CC[C@]2(C)[C@@H](C(C)=O)CC[C@@H]32)C1 | 0.041 |  |  | 
